Laboratory results as given in ChEMBL document CHEMBL1201862, “PubChem BioAssay data set” (2004).
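Dose response: 5 concentrations. Exposure: 48 h. Format: 96-well plates. Endpoint: linear interpolation; highest concentration if not reached. At the GI50, growth is halved.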 Calls of active or inactive are those of the source. No stated cut-off is given here; in the data, active = GI50 up to about 1.1 µM and inactive = higher.

Tests used:
Assay in all cases: NCI-60 cell line screen, 48 h
[1] = tested on: 786-0
[2] = tested on: A498
[3] = tested on: A549
[4] = tested on: ACHN
[5] = tested on: BT-549
[6] = tested on: CAKI-1
[7] = tested on: CCRF-CEM
[8] = tested on: COLO 205
[9] = tested on: DU-145
[10] = tested on: EKVX
[11] = tested on: HCC 2998
[12] = tested on: HCT-116
[13] = tested on: HCT-15
[14] = tested on: HL-60
[15] = tested on: HOP-62
[16] = tested on: HOP-92
[17] = tested on: Hs-578T
[18] = tested on: IGROV-1
[19] = tested on: K562
[20] = tested on: KM12
[21] = tested on: M14
[22] = tested on: MCF7
[23] = tested on: MDA-MB-231
[24] = tested on: MDA-MB-435
[25] = tested on: MDA-N
[26] = tested on: MOLT-4
[27] = tested on: Malme-3M
[28] = tested on: NCI-H226
[29] = tested on: NCI-H23
[30] = tested on: NCI-H460
[31] = tested on: NCI-H522
[32] = tested on: NCI/ADR-RES
[33] = tested on: OVCAR-3
[34] = tested on: OVCAR-4
[35] = tested on: OVCAR-5
[36] = tested on: OVCAR-8
[37] = tested on: PC-3
[38] = tested on: RPMI-8226
[39] = tested on: RXF 393
[40] = tested on: SF-268
[41] = tested on: SF-295
[42] = tested on: SF-539
[43] = tested on: SK-MEL-28
[44] = tested on: SK-MEL-2
[45] = tested on: SK-MEL-5
[46] = tested on: SK-OV-3
[47] = tested on: SN12C
[48] = tested on: SNB-19
[49] = tested on: SNB-75
[50] = tested on: SR
[51] = tested on: SW-620
[52] = tested on: T47D
[53] = tested on: TK-10
[54] = tested on: U-251
[55] = tested on: UACC-257
[56] = tested on: UACC-62
[57] = tested on: UO-31
[58] = tested on: HT-29
[59] = tested on: LOX IMVI

Measured: GI50

COc1ccc2c(c1OC)C(=O)N1C2=Cc2c(cc3c(c2OC)OCO3)CC1N(C)C (stereo not given)
inactive: [1] > 100 µM | [2] 47.8 µM | [3] 47.4 µM | [4] 29.9 µM | [5] 33.3 µM | [6] > 100 µM | [7] 27.7 µM | [8] 58.2 µM | [9] 43.8 µM | [10] 65.8 µM | [11] > 100 µM | [12] 35.3 µM | [14] 24.9 µM | [15] 45.9 µM | [16] 30.3 µM | [17] 34.8 µM | [18] > 100 µM | [19] 30.3 µM | [20] 34 µM | [21] 66.7 µM | [22] 58.7 µM | [23] 81.1 µM | [24] 53.3 µM | [25] 95.3 µM | [26] 34.5 µM | [27] 51.4 µM | [28] 40.4 µM | [29] 34 µM | [30] 28.8 µM | [31] 28.9 µM | [32] 26.4 µM | [33] 40.6 µM | [34] 30.1 µM | [35] > 100 µM | [36] 35.7 µM | [37] 30.9 µM | [38] 22.8 µM | [39] 54.5 µM | [40] 63.5 µM | [41] 50.8 µM | [42] 59.2 µM | [43] 46.1 µM | [44] 36.2 µM | [45] 45.1 µM | [46] 87.7 µM | [47] 35.9 µM | [48] > 100 µM | [49] 29.8 µM | [50] 28.9 µM | [51] 62.1 µM | [52] 24.4 µM | [53] 96.6 µM | [54] 49.4 µM | [55] 88.3 µM | [56] 27.5 µM | [57] 29.9 µM
36.5 µM: [13]

CCOC(=O)C1CCCCN1CCc1c[nH]c2ccccc12 (stereo not given)
inactive: [1] > 100 µM | [2] 44.1 µM | [3] 74.6 µM | [4] > 100 µM | [5] 75 µM | [6] > 100 µM | [7] > 100 µM | [8] > 100 µM | [9] > 100 µM | [10] > 100 µM | [11] > 100 µM | [12] 60 µM | [15] > 100 µM | [16] 16 µM | [58] 50.9 µM | [17] > 100 µM | [18] > 100 µM | [19] 72.3 µM | [20] > 100 µM | [59] > 100 µM | [21] > 100 µM | [22] > 100 µM | [23] > 100 µM | [24] > 100 µM | [25] > 100 µM | [26] 25.1 µM | [27] > 100 µM | [28] 71.6 µM | [29] 83.8 µM | [30] 94.8 µM | [31] 56.2 µM | [32] 73.1 µM | [33] > 100 µM | [34] 73.5 µM | [35] > 100 µM | [36] > 100 µM | [37] > 100 µM | [38] 84.7 µM | [39] 80.9 µM | [40] > 100 µM | [41] 66.2 µM | [42] > 100 µM | [43] > 100 µM | [44] > 100 µM | [45] 80.9 µM | [46] > 100 µM | [47] > 100 µM | [48] > 100 µM | [49] > 100 µM | [50] > 100 µM | [51] > 100 µM | [52] 32.5 µM | [53] > 100 µM | [54] > 100 µM | [55] > 100 µM | [56] > 100 µM | [57] 83.4 µM
93.1 µM: [13]
